ChEMBL document CHEMBL1201862, “PubChem BioAssay data set” (2004)
The source made the active and inactive calls.

Tests used:
[1] = inhibitors of intracellular T. cruzi replication, confirmation, NIH3T3 host cells, beta-gal luminescence (AID 2044); type: functional, cell-based;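 further: intracellular parasites grown in NIH/3T3 mouse fibroblasts as host cells; luminescent beta-galactosidase reporter signal from transgenic T. cruzi replicating inside host cells; inhibitors lower the luminescence signal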
[2] = Luminescence Cell-Based/Microorganism Confirmation at Dose of Inhibitors of Trypanosoma cruzi Infection. [Related pubchem assays: 1885, 1968 ]; type: functional
[3] = cytotoxicity toward NIH3T3 fibroblasts, dose response, counter-screen, cell-based, ATP luminescence, mouse fibroblasts (AID 2010); type: functional;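 further: cells exposed to compound for about 90 hours before reading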
[4] = cells
[5] = Luminescence Cell-Based Secondary HTS screen to identify cytotoxic compounds of NIH3T3 cells. [Related pubchem assays: 1885, 1968 ]; type: functional
[6] = inhibitors of Trypanosoma cruzi host-cell infection, confirmation, beta-gal luminescence, NIH3T3 host cells (AID 2630); type: functional, cell-based; details: Mus musculus
[7] = target: T1, SUMO-activating enzyme (Homo sapiens, UniProt Q9UBT2); experiment: inhibitors of in vitro SUMOylation cascade, primary screen, biochemical, HTRF, uHTS (AID 2006); type: protein-complex assay
[8] = target: Eukaryotic translation initiation factor 4E (Mus musculus, UniProt P63073); experiment: eIF4E–eIF4G protein interaction inhibitors, dose response, biochemical, TR-FRET (AID 855); type: functional;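 further: potency for disrupting eIF4E binding to eIF4GI seen as loss of FRET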
[9] = target: G-protein coupled receptor 55 (Homo sapiens, UniProt Q9Y2T6); experiment: GPR55 antagonists blocking LPI-driven arrestin recruitment, primary screen, imaging, U2OS, beta-arrestin-GFP, LPI agonist (AID 2013); type: functional;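 further: antagonist potency measured as reduced agonist-driven arrestin aggregation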
[10] = target: T2, Rac GTPase-activating protein 1 (Homo sapiens, UniProt Q9H0H5); experiment: MgcRacGAP GTPase-activating activity inhibitors, confirmation, biochemical, ADP Hunter fluorescence, primary and confirmatory (AID 624330); type: functional
T2 sequence (Q9H0H5 whole entry): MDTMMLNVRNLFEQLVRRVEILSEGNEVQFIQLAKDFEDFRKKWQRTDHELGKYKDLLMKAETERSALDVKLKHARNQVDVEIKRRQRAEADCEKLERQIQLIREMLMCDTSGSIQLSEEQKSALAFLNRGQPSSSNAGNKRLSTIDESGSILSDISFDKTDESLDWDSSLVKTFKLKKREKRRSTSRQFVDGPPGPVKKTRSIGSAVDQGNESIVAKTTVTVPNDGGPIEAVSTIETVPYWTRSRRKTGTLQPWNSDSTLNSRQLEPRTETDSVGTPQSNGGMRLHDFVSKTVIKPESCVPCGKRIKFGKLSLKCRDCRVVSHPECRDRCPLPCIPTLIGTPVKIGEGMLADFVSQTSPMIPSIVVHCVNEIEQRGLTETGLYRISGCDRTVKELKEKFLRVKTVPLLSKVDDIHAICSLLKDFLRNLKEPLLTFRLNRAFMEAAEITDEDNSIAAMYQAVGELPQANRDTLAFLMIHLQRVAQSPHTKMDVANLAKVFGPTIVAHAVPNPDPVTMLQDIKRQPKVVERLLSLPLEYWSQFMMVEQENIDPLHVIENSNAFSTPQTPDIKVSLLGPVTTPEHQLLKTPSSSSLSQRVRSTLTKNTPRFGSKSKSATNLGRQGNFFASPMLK

[11] = target: T1, SUMO-activating enzyme; experiment: SUMOylation inhibitor hit validation, confirmation, SUMOylation inhibitor project, biochemical, AlphaScreen (AID 2018); type: functional
[12] = system: INS1; experiment: protection of INS-1E cells from cytokine death, dose response, ATP luminescence, dry powder (AID 488844); type: functional, cell-based; details: Rattus norvegicus
[13] = inhibitors of firefly luciferase expression or activity, dose response, H4 neuroglioma cells, luminescence (AID 1990); type: functional, cell-based
[14] = inhibitors of SNCA 5'UTR-driven reporter translation, confirmation, H4 neuroglioma cells, luminescence (AID 1988); type: functional, cell-based
[15] = Luminescence Cell-Based Dose Response HTS to Identify Inhibitors of 5'UTR Stem-Loop Driven Prion Protein mRNA Translation in H4 Neuroglioblastoma Cells. [Related pubchem assays: 1827 (Project Summary), 1813 (Primary HTS)]; type: functional
[16] = target: T3, Protein RecA (Mycobacterium tuberculosis, UniProt P9WHJ3); experiment: Fluorescence Cell-Free Homogeneous Dose Retest to Identify Inhibitors of RecA-Intein Splicing Activity. [Related pubchem assays (depositor defined):AID2097, AID2223, AID489010, AID492950]; type: functional
T3 sequence (P9WHJ3 whole entry): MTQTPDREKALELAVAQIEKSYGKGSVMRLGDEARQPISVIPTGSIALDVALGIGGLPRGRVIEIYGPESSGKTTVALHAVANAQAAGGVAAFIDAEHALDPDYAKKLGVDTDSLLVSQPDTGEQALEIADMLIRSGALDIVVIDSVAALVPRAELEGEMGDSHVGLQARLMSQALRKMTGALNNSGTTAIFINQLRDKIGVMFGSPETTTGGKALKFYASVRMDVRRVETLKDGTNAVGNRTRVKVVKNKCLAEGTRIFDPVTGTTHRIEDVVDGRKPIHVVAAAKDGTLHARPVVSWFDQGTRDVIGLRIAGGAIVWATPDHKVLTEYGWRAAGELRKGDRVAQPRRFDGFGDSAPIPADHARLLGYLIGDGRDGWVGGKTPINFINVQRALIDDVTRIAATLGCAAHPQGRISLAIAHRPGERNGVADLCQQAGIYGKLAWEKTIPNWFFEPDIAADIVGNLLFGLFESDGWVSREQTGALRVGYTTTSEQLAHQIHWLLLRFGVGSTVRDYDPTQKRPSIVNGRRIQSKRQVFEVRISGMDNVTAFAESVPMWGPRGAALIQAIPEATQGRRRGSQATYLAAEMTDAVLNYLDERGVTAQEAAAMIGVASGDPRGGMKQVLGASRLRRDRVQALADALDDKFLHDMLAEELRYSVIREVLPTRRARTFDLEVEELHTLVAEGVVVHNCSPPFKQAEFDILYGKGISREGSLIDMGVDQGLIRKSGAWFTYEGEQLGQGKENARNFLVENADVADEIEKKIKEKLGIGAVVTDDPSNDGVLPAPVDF

[17] = target: T4, Hexokinase HKDC1 (Homo sapiens, UniProt Q2TB90); experiment: HKDC1 hexokinase inhibitors, dose response, biochemical, W721R variant (AID 504729); type: functional
T4 sequence (Q2TB90 whole entry): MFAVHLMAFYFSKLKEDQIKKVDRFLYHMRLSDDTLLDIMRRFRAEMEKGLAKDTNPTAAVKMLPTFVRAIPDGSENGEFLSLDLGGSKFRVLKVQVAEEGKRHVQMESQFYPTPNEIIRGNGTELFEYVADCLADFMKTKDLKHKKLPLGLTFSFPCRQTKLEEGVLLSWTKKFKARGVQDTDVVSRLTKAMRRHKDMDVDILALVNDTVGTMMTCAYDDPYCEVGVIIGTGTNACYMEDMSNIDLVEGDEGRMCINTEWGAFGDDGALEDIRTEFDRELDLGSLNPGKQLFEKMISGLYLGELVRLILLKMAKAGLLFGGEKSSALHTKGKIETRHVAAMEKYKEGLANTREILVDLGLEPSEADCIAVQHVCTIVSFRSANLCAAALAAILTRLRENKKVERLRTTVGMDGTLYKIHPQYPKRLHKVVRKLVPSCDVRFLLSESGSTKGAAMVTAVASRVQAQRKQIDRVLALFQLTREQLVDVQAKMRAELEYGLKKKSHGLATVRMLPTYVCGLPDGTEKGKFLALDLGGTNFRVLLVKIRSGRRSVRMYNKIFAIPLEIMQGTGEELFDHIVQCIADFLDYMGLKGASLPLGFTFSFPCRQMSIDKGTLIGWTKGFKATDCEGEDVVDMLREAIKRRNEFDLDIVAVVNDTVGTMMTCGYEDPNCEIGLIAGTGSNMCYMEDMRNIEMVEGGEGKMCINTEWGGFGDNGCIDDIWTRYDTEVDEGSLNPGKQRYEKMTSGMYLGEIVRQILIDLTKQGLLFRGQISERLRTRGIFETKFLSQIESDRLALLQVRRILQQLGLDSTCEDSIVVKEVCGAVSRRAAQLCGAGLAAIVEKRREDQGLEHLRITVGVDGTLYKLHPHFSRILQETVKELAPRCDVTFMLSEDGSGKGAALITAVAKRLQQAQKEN

[18] = target: T5, Replicative DNA helicase DnaB (Mycobacterium tuberculosis, UniProt P9WMR3); experiment: DnaB intein splicing inhibitors, dose response, biochemical, cell-free fluorescence (AID 449749); type: functional
T5 sequence (P9WMR3 whole entry): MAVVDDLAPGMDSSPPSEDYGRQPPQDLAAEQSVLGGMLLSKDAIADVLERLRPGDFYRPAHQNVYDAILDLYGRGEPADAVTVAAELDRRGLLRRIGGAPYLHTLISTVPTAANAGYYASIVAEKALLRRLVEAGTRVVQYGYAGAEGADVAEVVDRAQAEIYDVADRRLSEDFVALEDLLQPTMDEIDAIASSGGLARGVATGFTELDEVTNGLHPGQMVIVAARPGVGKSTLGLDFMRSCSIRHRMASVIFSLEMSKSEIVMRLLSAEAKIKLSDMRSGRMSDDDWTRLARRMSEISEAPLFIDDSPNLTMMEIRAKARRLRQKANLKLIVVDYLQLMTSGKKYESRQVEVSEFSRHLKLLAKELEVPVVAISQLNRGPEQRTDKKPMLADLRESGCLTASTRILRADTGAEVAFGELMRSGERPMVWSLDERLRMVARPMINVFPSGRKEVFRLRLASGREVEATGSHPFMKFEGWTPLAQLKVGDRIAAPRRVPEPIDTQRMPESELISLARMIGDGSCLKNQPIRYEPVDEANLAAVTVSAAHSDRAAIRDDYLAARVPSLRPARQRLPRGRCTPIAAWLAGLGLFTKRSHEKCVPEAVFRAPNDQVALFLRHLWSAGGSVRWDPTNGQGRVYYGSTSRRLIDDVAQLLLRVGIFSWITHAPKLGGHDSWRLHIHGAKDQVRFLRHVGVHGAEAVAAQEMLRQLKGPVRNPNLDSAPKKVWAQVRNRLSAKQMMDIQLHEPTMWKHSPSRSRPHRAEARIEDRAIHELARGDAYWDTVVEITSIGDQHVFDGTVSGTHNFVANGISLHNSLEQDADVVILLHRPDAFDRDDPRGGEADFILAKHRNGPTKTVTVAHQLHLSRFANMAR

[19] = target: T6, Sentrin-specific protease 8 (Homo sapiens, UniProt Q96LD8); type: functional
T6 sequence (Q96LD8 whole entry): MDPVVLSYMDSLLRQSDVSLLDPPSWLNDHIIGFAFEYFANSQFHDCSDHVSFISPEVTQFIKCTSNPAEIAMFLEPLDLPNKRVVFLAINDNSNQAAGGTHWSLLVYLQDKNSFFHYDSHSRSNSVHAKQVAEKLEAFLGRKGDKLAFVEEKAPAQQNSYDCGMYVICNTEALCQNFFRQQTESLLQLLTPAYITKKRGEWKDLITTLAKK

[20] = target: T6, Sentrin-specific protease 8; type: functional; remark: listed apart in the source
[21] = Counterscreen for AddAB inhibitors: absorbance-based bacterial cell-based high throughput dose response assay for inhibitors of bacterial viability. [Related pubchem assays (depositor defined):AID435030, AID449728, AID449731, AID488942, AID488955, AID488956]; type: functional
[22] = target: Exodeoxyribonuclease V (Escherichia coli (strain K12), UniProt P04993+P07648+P08394); experiment: E. coli RecBCD inhibitors, dose response, counter-screen for AddAB inhibitor project, absorbance, V66 E. coli, mutant T4 phage (AID 492957); type: functional, cell-based, Escherichia coli str. K-12 substr. MG1655
[23] = system: HEK293; experiment: inhibitors of LMP1-driven NF-kB reporter, dose response, cell-based, HEK293, luciferase, cherry-pick (AID 588343); type: functional; details: Homo sapiens
[24] = system: INS1; experiment: beta cell apoptosis inhibitors, cytokine rescue, dose response, luminescence, retest (AID 449756); type: functional, cell-based; details: Rattus norvegicus;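 further: cell death triggered by IL-1 beta plus TNF-alpha plus IFN-gamma mixture; protective hits raise ATP signal compared with cytokine alone wells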

T1 sequence (Q9UBE0 whole entry): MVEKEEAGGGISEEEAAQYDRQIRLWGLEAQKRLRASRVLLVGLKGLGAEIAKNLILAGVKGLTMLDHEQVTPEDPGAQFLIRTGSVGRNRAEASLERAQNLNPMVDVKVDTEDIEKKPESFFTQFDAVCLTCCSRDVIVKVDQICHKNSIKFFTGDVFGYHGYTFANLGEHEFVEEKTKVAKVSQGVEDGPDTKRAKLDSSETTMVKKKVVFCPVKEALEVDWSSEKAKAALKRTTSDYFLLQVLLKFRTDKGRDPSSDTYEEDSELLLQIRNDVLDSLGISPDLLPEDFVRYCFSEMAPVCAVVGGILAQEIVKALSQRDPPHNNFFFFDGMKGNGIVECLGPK
T1 sequence (Q9UBT2 whole entry): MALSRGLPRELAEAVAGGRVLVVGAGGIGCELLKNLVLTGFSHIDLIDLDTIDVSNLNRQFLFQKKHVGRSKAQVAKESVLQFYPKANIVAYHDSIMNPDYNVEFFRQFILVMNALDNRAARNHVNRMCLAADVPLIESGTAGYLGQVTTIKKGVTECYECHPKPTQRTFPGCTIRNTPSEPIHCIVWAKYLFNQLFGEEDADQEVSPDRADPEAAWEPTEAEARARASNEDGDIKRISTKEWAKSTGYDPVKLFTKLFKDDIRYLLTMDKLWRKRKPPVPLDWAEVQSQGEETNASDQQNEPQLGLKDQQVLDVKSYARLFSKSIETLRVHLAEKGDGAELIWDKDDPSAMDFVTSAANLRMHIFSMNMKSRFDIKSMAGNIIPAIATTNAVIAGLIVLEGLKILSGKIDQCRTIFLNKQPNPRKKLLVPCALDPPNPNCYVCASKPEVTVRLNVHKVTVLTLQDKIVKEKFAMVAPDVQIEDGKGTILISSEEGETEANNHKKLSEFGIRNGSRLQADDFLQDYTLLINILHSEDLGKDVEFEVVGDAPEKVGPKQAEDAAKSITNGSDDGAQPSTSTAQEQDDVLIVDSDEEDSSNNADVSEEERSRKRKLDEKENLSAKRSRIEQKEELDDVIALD
Chain of Exodeoxyribonuclease V (P04993 whole entry): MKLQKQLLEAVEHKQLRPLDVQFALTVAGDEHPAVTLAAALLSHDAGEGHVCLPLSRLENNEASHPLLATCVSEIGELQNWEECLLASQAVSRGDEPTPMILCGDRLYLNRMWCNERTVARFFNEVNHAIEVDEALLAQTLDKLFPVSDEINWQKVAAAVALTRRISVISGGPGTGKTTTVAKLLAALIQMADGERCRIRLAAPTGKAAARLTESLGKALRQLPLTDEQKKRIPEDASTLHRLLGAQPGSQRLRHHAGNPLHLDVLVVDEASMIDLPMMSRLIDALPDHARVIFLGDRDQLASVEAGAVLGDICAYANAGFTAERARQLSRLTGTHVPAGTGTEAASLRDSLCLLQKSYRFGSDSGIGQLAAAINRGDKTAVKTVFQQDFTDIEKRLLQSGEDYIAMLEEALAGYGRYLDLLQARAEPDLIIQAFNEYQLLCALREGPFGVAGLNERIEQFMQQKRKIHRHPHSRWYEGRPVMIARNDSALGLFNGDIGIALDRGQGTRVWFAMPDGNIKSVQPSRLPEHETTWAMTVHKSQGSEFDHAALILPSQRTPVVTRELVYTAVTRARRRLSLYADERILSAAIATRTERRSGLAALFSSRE
Chain of Exodeoxyribonuclease V (P07648 whole entry): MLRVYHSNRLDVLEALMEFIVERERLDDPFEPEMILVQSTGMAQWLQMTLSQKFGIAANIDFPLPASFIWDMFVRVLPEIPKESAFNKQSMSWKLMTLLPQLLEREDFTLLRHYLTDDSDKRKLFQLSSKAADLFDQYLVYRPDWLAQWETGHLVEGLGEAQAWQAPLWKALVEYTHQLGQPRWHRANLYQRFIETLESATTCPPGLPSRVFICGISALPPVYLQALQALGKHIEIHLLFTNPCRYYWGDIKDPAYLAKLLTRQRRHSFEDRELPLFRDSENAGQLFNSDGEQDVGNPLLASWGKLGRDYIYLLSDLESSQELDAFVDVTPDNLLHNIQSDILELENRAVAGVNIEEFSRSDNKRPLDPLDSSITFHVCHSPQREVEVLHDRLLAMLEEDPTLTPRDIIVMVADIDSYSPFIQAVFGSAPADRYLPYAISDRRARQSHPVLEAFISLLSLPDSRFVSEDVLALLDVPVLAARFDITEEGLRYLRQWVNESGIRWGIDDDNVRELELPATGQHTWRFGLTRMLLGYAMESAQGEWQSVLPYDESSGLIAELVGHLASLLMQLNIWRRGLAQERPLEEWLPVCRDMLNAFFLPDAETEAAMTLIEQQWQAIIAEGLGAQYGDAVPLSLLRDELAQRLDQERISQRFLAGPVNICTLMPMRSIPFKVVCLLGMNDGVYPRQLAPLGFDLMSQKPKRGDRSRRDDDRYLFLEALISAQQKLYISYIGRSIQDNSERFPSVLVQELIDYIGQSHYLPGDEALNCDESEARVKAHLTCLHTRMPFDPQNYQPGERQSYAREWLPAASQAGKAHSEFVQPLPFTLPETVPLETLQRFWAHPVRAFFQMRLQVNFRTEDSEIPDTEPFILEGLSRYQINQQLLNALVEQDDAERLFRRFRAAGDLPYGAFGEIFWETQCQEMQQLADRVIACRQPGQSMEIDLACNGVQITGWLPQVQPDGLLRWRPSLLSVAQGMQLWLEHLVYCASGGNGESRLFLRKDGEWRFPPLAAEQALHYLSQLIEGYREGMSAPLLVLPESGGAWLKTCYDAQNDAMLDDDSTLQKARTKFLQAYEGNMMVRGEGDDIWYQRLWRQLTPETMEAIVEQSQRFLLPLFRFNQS
Chain of Exodeoxyribonuclease V (P08394 whole entry): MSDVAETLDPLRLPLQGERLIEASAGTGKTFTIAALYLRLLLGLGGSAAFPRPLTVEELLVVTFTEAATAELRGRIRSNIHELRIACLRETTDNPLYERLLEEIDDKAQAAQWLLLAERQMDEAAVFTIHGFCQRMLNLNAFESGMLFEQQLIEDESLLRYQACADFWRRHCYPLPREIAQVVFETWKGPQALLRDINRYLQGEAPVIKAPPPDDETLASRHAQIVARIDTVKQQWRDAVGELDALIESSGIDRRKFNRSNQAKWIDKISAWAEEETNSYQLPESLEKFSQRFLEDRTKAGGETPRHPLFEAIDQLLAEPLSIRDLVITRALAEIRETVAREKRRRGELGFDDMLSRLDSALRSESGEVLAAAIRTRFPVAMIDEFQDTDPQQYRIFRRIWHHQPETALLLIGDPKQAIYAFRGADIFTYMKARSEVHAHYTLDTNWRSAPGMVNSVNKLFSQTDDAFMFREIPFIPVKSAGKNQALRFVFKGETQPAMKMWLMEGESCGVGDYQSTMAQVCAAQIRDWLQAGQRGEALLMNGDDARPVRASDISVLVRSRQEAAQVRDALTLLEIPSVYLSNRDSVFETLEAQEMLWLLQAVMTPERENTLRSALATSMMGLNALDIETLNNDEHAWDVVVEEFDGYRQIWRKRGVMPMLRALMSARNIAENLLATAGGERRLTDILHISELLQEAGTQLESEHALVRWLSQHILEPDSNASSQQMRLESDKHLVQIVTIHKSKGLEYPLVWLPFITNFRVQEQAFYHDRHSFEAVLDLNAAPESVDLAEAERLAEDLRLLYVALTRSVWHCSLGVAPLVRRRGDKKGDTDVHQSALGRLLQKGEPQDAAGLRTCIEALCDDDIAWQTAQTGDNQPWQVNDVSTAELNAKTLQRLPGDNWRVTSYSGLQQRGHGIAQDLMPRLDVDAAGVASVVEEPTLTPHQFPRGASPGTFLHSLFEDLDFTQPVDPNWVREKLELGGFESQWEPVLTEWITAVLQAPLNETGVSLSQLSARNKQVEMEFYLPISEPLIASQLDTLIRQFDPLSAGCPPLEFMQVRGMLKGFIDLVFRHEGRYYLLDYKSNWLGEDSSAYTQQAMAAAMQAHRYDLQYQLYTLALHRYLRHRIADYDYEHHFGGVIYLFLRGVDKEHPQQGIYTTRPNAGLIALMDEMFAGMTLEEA
Chain of Eukaryotic translation initiation factor 4E (P63073 whole entry): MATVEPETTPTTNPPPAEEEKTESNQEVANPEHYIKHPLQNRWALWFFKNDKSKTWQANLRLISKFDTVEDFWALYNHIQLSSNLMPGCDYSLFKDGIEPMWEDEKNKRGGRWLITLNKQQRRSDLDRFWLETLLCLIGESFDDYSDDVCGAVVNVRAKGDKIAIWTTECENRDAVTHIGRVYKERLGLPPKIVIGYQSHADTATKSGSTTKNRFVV
Chain of G-protein coupled receptor 55 (Q9Y2T6 whole entry): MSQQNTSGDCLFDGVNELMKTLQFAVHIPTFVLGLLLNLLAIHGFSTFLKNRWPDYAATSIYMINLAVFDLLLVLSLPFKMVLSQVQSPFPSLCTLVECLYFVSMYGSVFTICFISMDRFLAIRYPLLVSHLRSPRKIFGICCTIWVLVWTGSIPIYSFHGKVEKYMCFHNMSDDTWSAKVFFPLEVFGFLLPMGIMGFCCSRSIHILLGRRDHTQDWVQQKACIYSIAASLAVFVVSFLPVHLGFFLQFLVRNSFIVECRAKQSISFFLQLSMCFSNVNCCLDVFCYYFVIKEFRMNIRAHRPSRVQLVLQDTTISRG

CSc1ccc(CN2CCCC(CNC(=O)c3ccc(F)cc3)C2)cc1 (configuration not stated)
EC50 [1]: < 0.1 µM (active)
EC50 [2]: 7.17 µM (active)
EC50 [3]: > 30 µM (not active)
EC50 [4]: 0.12 µM (active)
EC50 [5]: > 195 µM (not active)
EC50 [6]: 7.17 µM (active)

O=C(Cc1cn(Cc2cccc(Cl)c2)c2ccccc12)N1CCCCCC1
EC50 [1]: 1.75 µM (active)
EC50 [2]: 3.09 µM (active)
EC50 [3]: > 60 µM (not active)
EC50 [5]: > 195 µM (not active)
EC50 [6]: 3.09 µM (active)

O=C(O)c1cccc(N2C(=O)/C(=C/c3ccc(SCc4ccc(Cl)cc4)o3)SC2=S)c1
IC50 [7]: 14.6 µM (active)
IC50 [8]: 29.9 µM (active)
IC50 [9]: 4.43 µM (active)
IC50 [10]: 132 µM (active)
IC50 [11]: 1.39 µM (active)

C[C@@H]1CN([C@@H](C)CO)C(=O)c2cccc(NC(=O)Nc3ccccc3)c2O[C@H]1CN(C)S(=O)(=O)c1ccc(Cl)cc1
AC50 [12]: 116 µM (active)

CCCCC[C@H](O)/C=C/[C@@H]1[C@@H](C/C=C\CCCC(=O)OC)[C@@H](O)C[C@H]1O
EC50 [13]: > 120 µM (not active)
EC50 [14]: > 120 µM (not active)
IC50 [7]: 18.4 µM (active)
IC50 [8]: 8.7 µM (active)
EC50 [15]: > 120 µM (not active)
EC50 [16]: 12.2 µM (active)
IC50 [17]: 9.12 µM (active)
AC50 [18]: 16.1 µM (active)
IC50 [11]: 10.5 µM (active)

O=C(CCN1CCN(c2ccccc2)CC1)N/N=C/c1ccc([N+](=O)[O-])o1
EC50 [1]: < 0.1 µM (active)
EC50 [3]: > 60 µM (not active)
IC50 [19]: 40 µM (active)
EC50 [4]: 0.037 µM (active)
IC50 [20]: 96.9 µM (inactive)
IC50 [21]: > 39.5 µM (inactive)
IC50 [22]: > 119 µM (inactive)

CCC(=O)NC(c1ccc(C)cc1)c1cc(Cl)c2cccnc2c1O (configuration not stated)
AC50 [23]: 12.9 µM (active)
AC50 [24]: 1.65 µM (active)
IC50 [21]: > 119 µM (inactive)
IC50 [22]: > 119 µM (inactive)
